Source: patent US6596477B1, “Treatment and prevention of immunodeficiency virus infection by administration of non-pyrogenic derivatives of lipid A” (University of Maryland Biotechnology Institute, priority 1998, dated 2003)

Assays:
mice [1] = settings: cited from earlier work
HIV-1 [2] = settings: AIDS patients; cited from earlier work
HIV-1 [3] = settings: alone; cited from earlier work
human PBMCs [4] = experiment: LPS antagonist test: TNFα from human PBMCs stimulated with W3110 LPS mixed with antagonist; type: cell-based; settings: 1 μg/ml mixed with W3110 LPS 10 ng/ml; 8 hr
Experimental: Quantitation of TNFα, IL-1β, IL-6, MIP-1α and MIP-1β in these culture supernatants was achieved by capture ELISA (R&D Systems).
W3110 LPS (also cultured at 37° C.) from 1 ng/ml to 100 ng/ml alone and W3110 LPS (10 ng/ml) mixed with synthetic lipid IVA (1 μg/ml) were used as controls.

HIV-1BAL = HIV-1BAL replication (p24 ELISA) in human PBMC-derived monocytes pretreated 24 hours; type: cell-based; settings: 1000, 100 and 10 ng/ml for 24 hours; 19 days after infection; FIG. 5
Experimental: To investigate the utility of the aforementioned findings, we investigated whether commercially available synthetic lipid IVA (ICN Inc.) suppressed the replication of HIV-1BAL in human PBMC-derived monocytes. Therefore, PBMCs were obtained as outlined in Section 6, see above, and placed into 12 well culture flat-bottom plate and incubated in CM (see example 1) for 12 days at 37° C. in 5% Co2. Non-adherent cells were removed and the cells were given fresh media every 2 days. After 6 days, the adherent PBMCs were treated with synthetic lipid IVA at 1000 ng/ml, 100 ng/ml and 10 ng/ml for 24 hours. The treated cells were subsequently infected with 0.200 ng of HIV-1BAL (Cocchi et al, supra) for 2 hours, washed twice and incubated for a further 19 days. Culture supernatants were then collected and the level of p24 in these supernatants was measured by ELISA (R&D Systems).
PBMC-derived monocytes were obtained as outlined in Section 8, see above. […] The treated cells were subsequently infected with 0.200 ng of HIV-1BAL (Cocchi et al., supra) for 2 hours, washed twice and incubated for a further 19 days. Culture supernatants were then collected and the level of p24 in these supernatants was measured by ELISA (R&D Systems).

human PBMCs [5] = experiment: human PBMC activation assay: proinflammatory cytokines (TNFα, IL-1β, IL-6) in supernatants by capture ELISA; type: cell-based; settings: 1 μg/ml; 8 hr
Experimental: 50 ml of whole blood is mixed with an equal volume of RPMI (Life Technologies) and PBMCs are isolated by density gradient using lymphocyte separation medium according to the manufacturer's directions (Organon). The PBMCs are washed twice with RPMI then resuspended in 6 ml of ice cold sterile water and placed on ice for 30 sec to lyse the erythrocytes. The osmolarity is adjusted by adding 2 ml of ice cold 3.5% (w/v) NaCl; the PBMCs are harvested by centrifugation, washed with RPMI and resuspended in complete medium (CM; RPMI containing pyruvate, glutamine, PenStrep, and 10% endotoxin-free human AB serum (Life Technologies) at a density of 6×10^6 PBMCs/ml. CM containing the preparations to be assayed are placed into duplicate wells of a 96-well flat bottom culture late (Costar) at double the target final concentration. An equal volume of CM containing the PBMCs then is added to these wells and the culture plates are incubated at 37° C. in 5% CO2 for 8 hr. The supernatants are then removed and stored at 70° C. Quantitation of TNFα, IL-1β, IL-6, MIP-1α, MIP-1β and RANTES in these culture supernatants is achieved by capture ELISA (R&D Systems).

human PBMCs [6] = experiment: β chemokine (MIP-1α, MIP-1β, RANTES) secretion from human PBMCs, dose and time course, capture ELISA; type: cell-based
mice [7] = settings: cited from earlier work; remark: listed apart in the source

In the case of “2,3-diacyl-glucosamine-1-phosphate [lipid X]”, the “pyrogenicity / toxicity in mice” value (mice [1]) is given as “non-pyrogenic in mice”.

In the case of CC(C)c1nc(CN(C)C(=O)N[C@H](C(=O)N[C@@H](Cc2ccccc2)C[C@H](O)[C@H](Cc2ccccc2)NC(=O)OCc2cncs2)C(C)C)cs1 [ABT-538], the CD4 lymphocyte counts (HIV-1 [2]) is listed as “CD4 lymphocyte counts to rise substantially” and the “plasma HIV-1 levels” value (HIV-1 [2]) is listed as “causes plasma HIV-1 levels to decrease exponentially”.

In the case of Cc1cn([C@H]2C[C@H](N=[N+]=[N-])[C@@H](CO)O2)c(=O)[nH]c1=O [AZT, 3′-azido-2′,3′-dideoxythymidine], the “effect on viral load” value (HIV-1 [3]) is listed as “about 1 log reduction”.

In the case of CCCCCCCCCCC[C@@H](O)CC(=O)N[C@H]1[C@H](OC[C@H]2O[C@H](OP(=O)(O)O)[C@H](NC(=O)C[C@H](O)CCCCCCCCCCC)[C@@H](OC(=O)C[C@H](O)CCCCCCCCCCC)[C@@H]2O)O[C@H](CO)[C@@H](OP(=O)(O)O)[C@@H]1OC(=O)C[C@H](O)CCCCCCCCCCC [Lipid IVA], the TNFα (human PBMCs [4]) is reported as under 30 pg/mL, the “replication of HIV-1BAL (p24) in PBMC-derived monocytes” value (HIV-1BAL) is reported as “suppresses the replication of HIV-1^BAL in a dose-dependent manner” and the “IL-1β in human PBMC culture supernatants after stimulation with LPS” value (human PBMCs [5]) is reported as 13 ± 1 pg/mL. The “IL-6 in human PBMC culture supernatants after stimulation with LPS” value (human PBMCs [5]) was 7581 ± 20 pg/mL, the “pyrogenicity / toxicity in mice” value (mice [1]) was “displays similar toxicity of that of lipid A in mice” and the “induction of β chemokines” value (human PBMCs [6]) was “without Inducing Measurable Levels of β Chemokines”.

With CCCCCC/C=C/CCCCCC(=O)O[C@H](CCCCCCCCCCC)CC(=O)NC1C(OCC2OC(OP(=O)(O)O)C(NC(=O)CC(=O)CCCCCCCCCCC)C(OC(=O)C[C@H](O)CCCCCCC)C2O)OC(CO)C(OP(=O)(O)O)C1OC(=O)C[C@H](O)CCCCCCC (stereo partly drawn) [RsDPLA, R. sphaeroides diphosphoryl lipid A] the “level of RANTES after stimulation” value (human PBMCs [6]; FIG. 3) was “not significantly elevated”, the “time of peak production of MIP-1α and MIP-1β after stimulation” value (human PBMCs [6]; supernatants at 8, 16, 24, 48 hr, FIG. 3) was 24 h and the MIP-1α secretion (human PBMCs [6]; various doses, FIG. 2) was “stimulated the secretion of MIP-1α and MIP-1β in a dose-dependent manner”. For the same molecule, the MIP-1β secretion (human PBMCs [6]; various doses, FIG. 2) was “stimulated the secretion of MIP-1α and MIP-1β in a dose-dependent manner”.

For R. sphaeroides lipid A [RSLA], the LPS induced lethality (mice [7]) is given as “prevents LPS induced lethality in mice”.
